Laboratory results: PubChem BioAssay AID2060498 (Molecular Pharmacology Branch, DTP, NCI, 2025)

System: 171881-019-R-J1-PDC tumor spheroids, viability
Experiment: Anticancer human tumor 171881-019-R-J1-PDC patient-derived invasive breast carcinoma cell line growth inhibition [GQUAD]
Conditions: spheroids with HUVEC and MSC; for IC50: curve of first compound; for viability, T/C: stronger effect = lower value
Outline: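 Multi-cell-type spheroids of tumor cells with HUVEC and mesenchymal stem cells, treated with drug combinations. Concentrations descend in half-log steps from near clinical Cmax, or from 10 microM where Cmax is unknown; viability read-out.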

[1] = second compound 0.0316 µM, first compound 0.0316 µM
[2] = second compound 0.0316 µM, first compound 0.1 µM
[3] = second compound 0.0316 µM, first compound 0.316 µM
[4] = second compound 0.0316 µM, first compound 1 µM
[5] = second compound 0.0316 µM, first compound 3.16 µM
[6] = second compound 0.0316 µM, first compound 10 µM
[7] = second compound 0.1 µM, first compound 0.0316 µM
[8] = second compound 0.1 µM, first compound 0.1 µM
[9] = second compound 0.1 µM, first compound 0.316 µM
[10] = second compound 0.1 µM, first compound 1 µM
[11] = second compound 0.1 µM, first compound 3.16 µM
[12] = second compound 0.1 µM, first compound 10 µM
[13] = second compound 0.316 µM, first compound 0.0316 µM
[14] = second compound 0.316 µM, first compound 0.1 µM
[15] = second compound 0.316 µM, first compound 0.316 µM
[16] = second compound 0.316 µM, first compound 1 µM
[17] = second compound 0.316 µM, first compound 3.16 µM
[18] = second compound 0.316 µM, first compound 10 µM
[19] = second compound 1 µM, first compound 0.0316 µM
[20] = second compound 1 µM, first compound 0.1 µM
[21] = second compound 1 µM, first compound 0.316 µM
[22] = second compound 1 µM, first compound 1 µM
[23] = second compound 1 µM, first compound 3.16 µM
[24] = second compound 1 µM, first compound 10 µM
[25] = second compound 3.16 µM, first compound 0.0316 µM
[26] = second compound 3.16 µM, first compound 0.1 µM
[27] = second compound 3.16 µM, first compound 0.316 µM
[28] = second compound 3.16 µM, first compound 1 µM
[29] = second compound 3.16 µM, first compound 3.16 µM
[30] = second compound 3.16 µM, first compound 10 µM
[31] = second compound 10 µM, first compound 0.0316 µM
[32] = second compound 10 µM, first compound 0.1 µM
[33] = second compound 10 µM, first compound 0.316 µM
[34] = second compound 10 µM, first compound 1 µM
[35] = second compound 10 µM, first compound 3.16 µM
[36] = second compound 10 µM, first compound 10 µM
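Note: spheroids exposed to compounds for 7 days.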
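Throughout, for viability, T/C: 100% = DMSO vehicle control viability.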

Compound: CC(C)n1c(=O)n(C)c2cnc3cc(F)c(-c4ccc(OCCCN5CCCCC5)nc4)cc3c21 + Cc1[nH]c2ccc(F)cc2c1-c1nc2c3cccnc3c3ncccc3c2[nH]1
- IC50 (second compound 0.0316 µM): 3360 nM
- IC50 (second compound 0.1 µM): 3350 nM
- IC50 (second compound 0.316 µM): 2420 nM
- IC50 (second compound 1 µM): 2310 nM
- IC50 (second compound 3.16 µM): < 31.6 nM
- IC50 (second compound 10 µM): 362 nM
- viability, T/C [1]: 103%
- viability, T/C [2]: 94.3%
- viability, T/C [3]: 95.4%
- viability, T/C [4]: 84.7%
- viability, T/C [5]: 51.1%
- viability, T/C [6]: 22.8%
- viability, T/C [7]: 97.3%
- viability, T/C [8]: 104%
- viability, T/C [9]: 93.4%
- viability, T/C [10]: 79.8%
- viability, T/C [11]: 51.7%
- viability, T/C [12]: 23.8%
- viability, T/C [13]: 95.9%
- viability, T/C [14]: 93.2%
- viability, T/C [15]: 64.5%
- viability, T/C [16]: 67.8%
- viability, T/C [17]: 50%
- viability, T/C [18]: 21.9%
- viability, T/C [19]: 89.7%
- viability, T/C [20]: 75.5%
- viability, T/C [21]: 84.8%
- viability, T/C [22]: 68%
- viability, T/C [23]: 43.2%
- viability, T/C [24]: 26.9%
- viability, T/C [25]: 28.7%
- viability, T/C [26]: 29.2%
- viability, T/C [27]: 23.4%
- viability, T/C [28]: 23.3%
- viability, T/C [29]: 19.1%
- viability, T/C [30]: 12%
- viability, T/C [31]: 65.7%
- viability, T/C [32]: 49.8%
- viability, T/C [33]: 52.4%
- viability, T/C [34]: 43.4%
- viability, T/C [35]: 34.3%
- viability, T/C [36]: 16.5%

Compound: CC1COCCN1c1cc(C2(S(C)(=N)=O)CC2)nc(-c2ccnc3[nH]ccc23)n1 (stereo not drawn) + Cc1[nH]c2ccc(F)cc2c1-c1nc2c3cccnc3c3ncccc3c2[nH]1
- IC50 (second compound 0.0316 µM): 1170 nM
- IC50 (second compound 0.1 µM): 1130 nM
- IC50 (second compound 0.316 µM): 1130 nM
- IC50 (second compound 1 µM): 749 nM
- IC50 (second compound 3.16 µM): < 31.6 nM
- IC50 (second compound 10 µM): < 31.6 nM
- viability, T/C [1]: 97.5%
- viability, T/C [2]: 97%
- viability, T/C [3]: 87.4%
- viability, T/C [4]: 55.4%
- viability, T/C [5]: 18.6%
- viability, T/C [6]: 9.09%
- viability, T/C [7]: 103%
- viability, T/C [8]: 100%
- viability, T/C [9]: 87.7%
- viability, T/C [10]: 53.6%
- viability, T/C [11]: 21.1%
- viability, T/C [12]: 10.5%
- viability, T/C [13]: 97.2%
- viability, T/C [14]: 75.4%
- viability, T/C [15]: 86.2%
- viability, T/C [16]: 51.6%
- viability, T/C [17]: 21.9%
- viability, T/C [18]: 10.2%
- viability, T/C [19]: 78.2%
- viability, T/C [20]: 76.6%
- viability, T/C [21]: 75.6%
- viability, T/C [22]: 41%
- viability, T/C [23]: 18.9%
- viability, T/C [24]: 9.88%
- viability, T/C [25]: 21.5%
- viability, T/C [26]: 15.3%
- viability, T/C [27]: 17.2%
- viability, T/C [28]: 13.9%
- viability, T/C [29]: 10.2%
- viability, T/C [30]: 6.81%
- viability, T/C [31]: 46%
- viability, T/C [32]: 49.4%
- viability, T/C [33]: 36.5%
- viability, T/C [34]: 22%
- viability, T/C [35]: 14.5%
- viability, T/C [36]: 8.3%

Compound: COc1cccc2c1C(=O)c1c(O)c3c(c(O)c1C2=O)CC(O)(C(=O)CO)CC3OC1CC(N)C(O)C(C)O1 (stereo not drawn) + CN(C)c1ccc(Nc2c3ccc(NC(=O)CCN4CCCC4)cc3nc3cc(NC(=O)CCN4CCCC4)ccc23)cc1
- IC50 (second compound 0.0316 µM): 261 nM
- IC50 (second compound 0.1 µM): 263 nM
- IC50 (second compound 0.316 µM): 229 nM
- IC50 (second compound 1 µM): < 31.6 nM
- IC50 (second compound 3.16 µM): < 31.6 nM
- IC50 (second compound 10 µM): < 31.6 nM
- viability, T/C [1]: 93.9%
- viability, T/C [2]: 66.6%
- viability, T/C [3]: 51.4%
- viability, T/C [4]: 19.9%
- viability, T/C [5]: 0.2%
- viability, T/C [6]: 0.24%
- viability, T/C [7]: 109%
- viability, T/C [8]: 68.2%
- viability, T/C [9]: 54.4%
- viability, T/C [10]: 20.2%
- viability, T/C [11]: 0.28%
- viability, T/C [12]: 0.36%
- viability, T/C [13]: 70.2%
- viability, T/C [14]: 55.2%
- viability, T/C [15]: 47.6%
- viability, T/C [16]: 10.7%
- viability, T/C [17]: 0.27%
- viability, T/C [18]: 0.33%
- viability, T/C [19]: 11.5%
- viability, T/C [20]: 11.2%
- viability, T/C [21]: 7.77%
- viability, T/C [22]: 2.02%
- viability, T/C [23]: 0.44%
- viability, T/C [24]: 0.64%
- viability, T/C [25]: 1.52%
- viability, T/C [26]: 2.29%
- viability, T/C [27]: 1.63%
- viability, T/C [28]: 0.4%
- viability, T/C [29]: 0.14%
- viability, T/C [30]: 0.51%
- viability, T/C [31]: 0.38%
- viability, T/C [32]: 0.25%
- viability, T/C [33]: 0.32%
- viability, T/C [34]: 0.18%
- viability, T/C [35]: 0.29%
- viability, T/C [36]: 0.26%

Compound: CC1COCCN1c1cc(C2(O)CC3CCC(C2)O3)c2cnn(-c3ccn[nH]3)c2n1 (stereo not drawn) + Cc1cnc(CNC(=O)c2c(=O)c3ccc(N4CCCN(C)CC4)nc3n3c2sc2ccccc23)cn1
- IC50 (second compound 0.0316 µM): < 31.6 nM
- IC50 (second compound 0.1 µM): < 31.6 nM
- IC50 (second compound 0.316 µM): < 31.6 nM
- IC50 (second compound 1 µM): < 31.6 nM
- IC50 (second compound 3.16 µM): < 31.6 nM
- IC50 (second compound 10 µM): < 31.6 nM
- viability, T/C [1]: 33.7%
- viability, T/C [2]: 16.5%
- viability, T/C [3]: 9.78%
- viability, T/C [4]: 5.45%
- viability, T/C [5]: 4.11%
- viability, T/C [6]: 2.67%
- viability, T/C [7]: 33.8%
- viability, T/C [8]: 17.1%
- viability, T/C [9]: 9.54%
- viability, T/C [10]: 5.51%
- viability, T/C [11]: 4.25%
- viability, T/C [12]: 3.04%
- viability, T/C [13]: 34.8%
- viability, T/C [14]: 21.1%
- viability, T/C [15]: 10.6%
- viability, T/C [16]: 5.81%
- viability, T/C [17]: 4.2%
- viability, T/C [18]: 3.15%
- viability, T/C [19]: 35.5%
- viability, T/C [20]: 22.2%
- viability, T/C [21]: 13.5%
- viability, T/C [22]: 6.47%
- viability, T/C [23]: 4.91%
- viability, T/C [24]: 2.51%
- viability, T/C [25]: 44.8%
- viability, T/C [26]: 27.9%
- viability, T/C [27]: 16.4%
- viability, T/C [28]: 6.87%
- viability, T/C [29]: 4.24%
- viability, T/C [30]: 0.23%
- viability, T/C [31]: 43.3%
- viability, T/C [32]: 31.1%
- viability, T/C [33]: 15.4%
- viability, T/C [34]: 7.69%
- viability, T/C [35]: 3.95%
- viability, T/C [36]: 0.2%
